Key:
participants with SSc-RP [1] = assay: Frequency of weekly symptomatic RP attacks (patient diary), Phase 2a Part A; format: in vivo, human; settings: ITT Part A; for Weekly Symptomatic RP Attacks, Max / Weekly Symptomatic RP Attacks, Mean (SD) / Weekly Symptomatic RP Attacks, Min / Weekly Symptomatic RP Attacks, Q1 / Weekly Symptomatic RP Attacks, Q3: Table A-2, excluding outliers, last 7 days of dosing period; for Weekly Symptomatic RP Attacks Percent Change from Baseline, Min / Weekly Symptomatic RP Attacks Change from Baseline, Max / Weekly Symptomatic RP Attacks Change from Baseline, Min / Weekly Symptomatic RP Attacks Change from Baseline, Q1 / Weekly Symptomatic RP Attacks Change from Baseline, Q3 / Weekly Symptomatic RP Attacks Percent Change from Baseline, Max / Weekly Symptomatic RP Attacks Percent Change from Baseline, Q3: Table A-3 by baseline RCS, first sub-table (RCS <5.0)
Experimental: Part A—Double-blind, Placebo-controlled, Parallel-group, Dose selection, will assess the safety and efficacy of two doses of cilnidipine (10 mg and 20 mg), alone and in combination with tadalafil. A total of 36 participants will be randomized to one of six pre-specified treatment arms. See Example 3 for data obtained in this phase of the study thus far, on 11 participants.
Please refer to FIG. 1 for treatment arms in Part A of the study. Dosing lasted or will last for 12 (±2) days in which participants self-administered or will self-administer daily doses of assigned treatment in the morning. Each participant took or will take one capsule and one tablet to blind the active therapy being received.
The relevant metrics measured by this tool daily are: • Study medication • SSc-RP symptoms (Reporting an attack including duration of attack) • Severity of the attack considering all symptoms of the attack e.g. tingling, numbness, pain, color changes (VAS 0-10 cm scale) • Participant's location at the time of the attack (inside home/outside home) • Selecting symptoms experienced during the attack (tingling, numbness, pain, color changes, other) • Pain rating during the attack (11-point Likert scale) • The RCS based on how much difficulty participants had with Raynaud's today, how many attacks the participant had, and how long they lasted. Participants will also be asked to consider how much pain, numbness, or other symptoms the Raynaud's caused in fingers (including painful sores), and how much the Raynaud's alone affected the use of hands today (VAS 0-10 cm scale).
Percent change from baseline evaluation for frequency of weekly RP attacks were or will be used as the primary efficacy variable. The sponsor-developed participant-informed diary will be used to record data. Frequency of weekly RP attacks is defined as the total number of RP attacks divided by the number of days with available diary data within the last 7 days of each dosing period then multiplied by 7. Total number of RP attacks during the last 7 days of screening period divided by the number of days with available data then multiplied by 7 will be used as baseline for the analysis of all periods.
Percentage change={(weekly RP attacks for the last 7 days of each dosing period−Baseline weekly RP attacks)/Baseline weekly RP attacks}*100%.
Absolute change=weekly RP attacks for the last 7 days of each dosing period−Baseline weekly RP attacks
Percent change from baseline evaluation for frequency of weekly RP attacks was and will be the primary efficacy endpoint. Frequency of weekly RP attacks is defined as the total number of RP attacks divided by the number of days with available diary data within the last 7 days of each dosing period then multiplied by 7. Total number of RP attacks during the last 7 days of screening period divided by the number of days with available data then multiplied by 7 will be used as baseline for the analysis of all periods.
The following data was actually obtained in accordance with the protocol and plan delineated in Examples 1 and 2. The accompanying data involved 11 patients out of the planned 76 patient study. The study was done in patients with scleroderma (systemic sclerosis) who had relatively frequent Raynaud symptoms as they needed to average at least one attack per day during a screening period of up to two weeks. In this first phase of this double-blind placebo-controlled, prospective randomized study, patients were treated in parallel and after meeting study criteria were randomized to receive either placebo, cilnidipine 10 mg daily, cilnidipine 20 mg daily, tadalafil 5 mg daily, cilnidipine 10 mg plus 5 mg of tadalafil, or cilnidipine 20 mg plus 5 mg of tadalafil.

participants with SSc-RP [2] = assay: SHAQ Alternative Disability Index; format: in vivo, human
Source text: The standard, validated, patient reported outcome measures tool for SSc patients, the Scleroderma Health Assessment Questionnaire (SHAQ), will be used to assess the participant qualify of life. Details are attached in the Appendix. The participant quality of life will be scored, and a disability index calculated for each questionnaire completed by the patient at Screening and each in-clinic visit. The absolute change in participant quality of life from baseline to the end of each dosing period will be calculated similar to frequency data as before.
The SHAQ is used to calculate a Disability Index to assess the participant qualify of life. The eight categories assessed by the Disability Index are 1) dressing and grooming, 2) arising, 3) eating, 4) walking, 5) hygiene, 6) reach, 7) grip, and 8) common daily activities. For each of these categories, patients report the amount of difficulty they have in performing two or three specific activities.
There are four possible responses for the Disability Index questions: • Without any difficulty=0 • With some difficulty=1 • With much difficulty=2 • Unable to do=3 • The highest score reported by the patient for any component question of the eight categories determines the score for that category. • If a component question is left blank or the response is too ambiguous to assign a score, then the score for that category is determined by the remaining completed question(s). • If all component questions are blank or if more than one answer is given, then follow up with the respondent is required. • If the respondent's mark is between the response columns, then move it to the closest one. If it's directly between the two, move it to the higher one.
The scoring variables and scoring rules permit the computation of two disability indices, the Standard Disability Index and the Alternative Disability Index.
The aid and device variables are not used to calculate the alternative disability index; it is calculated by adding the scores for each of the categories and dividing by the number of categories answered. This gives a score in the 0 to 3 range.

COCCOC(=O)C1=C(C)NC(C)=C(C(=O)OC/C=C/c2ccccc2)C1c1cccc([N+](=O)[O-])c1 (centres unmarked) [Cilnidipine, 1,4-dihydro-2,6-dimethyl,4-(3-nitrophenyl)-3,5-pyridinedicarboxylic acid 2-methoxyethyl (2 E)-3-phenyl-2-propenyl ester]
Weekly Symptomatic RP Attacks, Max (participants with SSc-RP [1]; listed as Cilnidipine 10 mg): 14.0, 14.0 | Weekly Symptomatic RP Attacks, Mean (SD) (participants with SSc-RP [1]; listed as Cilnidipine 10 mg): 14.00 | Weekly Symptomatic RP Attacks, Min (participants with SSc-RP [1]; listed as Cilnidipine 10 mg): 14.0, 14.0 | Weekly Symptomatic RP Attacks, Q1 (participants with SSc-RP [1]; listed as Cilnidipine 10 mg): 14.00, 14.00 | Weekly Symptomatic RP Attacks, Q3 (participants with SSc-RP [1]; listed as Cilnidipine 10 mg): 14.00, 14.00 | Weekly Symptomatic RP Attacks, Max (participants with SSc-RP [1]; listed as Cilnidipine 20 mg): 11.0 | Weekly Symptomatic RP Attacks, Mean (SD) (participants with SSc-RP [1]; listed as Cilnidipine 20 mg): 8.00 (4.243) | Weekly Symptomatic RP Attacks, Min (participants with SSc-RP [1]; listed as Cilnidipine 20 mg): 5.0 | Weekly Symptomatic RP Attacks, Q1 (participants with SSc-RP [1]; listed as Cilnidipine 20 mg): 5.00 | Weekly Symptomatic RP Attacks, Q3 (participants with SSc-RP [1]; listed as Cilnidipine 20 mg): 11.00 | Weekly Symptomatic RP Attacks, Max (participants with SSc-RP [1]; listed as Pooled Cilnidipine): 14.0 | Weekly Symptomatic RP Attacks, Mean (SD) (participants with SSc-RP [1]; listed as Pooled Cilnidipine): 10.00 (4.583) | Weekly Symptomatic RP Attacks, Min (participants with SSc-RP [1]; listed as Pooled Cilnidipine): 5.0 | Weekly Symptomatic RP Attacks, Q1 (participants with SSc-RP [1]; listed as Pooled Cilnidipine): 5.00 | Weekly Symptomatic RP Attacks, Q3 (participants with SSc-RP [1]; listed as Pooled Cilnidipine): 14.00 | Weekly Symptomatic RP Attacks Percent Change from Baseline, Min (participants with SSc-RP [1]): −33.3, −33.3% | Weekly Symptomatic RP Attacks Change from Baseline, Max (participants with SSc-RP [1]; listed as Cilnidipine 10 mg): −7.0, −7.0 | Weekly Symptomatic RP Attacks Change from Baseline, Min (participants with SSc-RP [1]; listed as Cilnidipine 10 mg): −7.0, −7.0 | Weekly Symptomatic RP Attacks Change from Baseline, Q1 (participants with SSc-RP [1]; listed as Cilnidipine 10 mg): −7.00, −7.00 | Weekly Symptomatic RP Attacks Change from Baseline, Q3 (participants with SSc-RP [1]; listed as Cilnidipine 10 mg): −7.00, −7.00 | Weekly Symptomatic RP Attacks Percent Change from Baseline, Max (participants with SSc-RP [1]; listed as Cilnidipine 10 mg): −33.3, −33.3% | Weekly Symptomatic RP Attacks Change from Baseline, Max (participants with SSc-RP [1]; listed as Cilnidipine 20 mg): −2.0 | Weekly Symptomatic RP Attacks Change from Baseline, Min (participants with SSc-RP [1]; listed as Cilnidipine 20 mg): −7.0 | Weekly Symptomatic RP Attacks Change from Baseline, Q1 (participants with SSc-RP [1]; listed as Cilnidipine 20 mg): −7.00 | Weekly Symptomatic RP Attacks Change from Baseline, Q3 (participants with SSc-RP [1]; listed as Cilnidipine 20 mg): −2.00 | Weekly Symptomatic RP Attacks Percent Change from Baseline, Max (participants with SSc-RP [1]; listed as Cilnidipine 20 mg): −28.6% | Weekly Symptomatic RP Attacks Percent Change from Baseline, Min (participants with SSc-RP [1]; listed as Cilnidipine 20 mg): −38.9% | Weekly Symptomatic RP Attacks Percent Change from Baseline, Q3 (participants with SSc-RP [1]; listed as Cilnidipine 20 mg): −28.57% | Weekly Symptomatic RP Attacks Change from Baseline, Max (participants with SSc-RP [1]; listed as Pooled Cilnidipine): −2.0 | Weekly Symptomatic RP Attacks Change from Baseline, Min (participants with SSc-RP [1]; listed as Pooled Cilnidipine): −7.0 | Weekly Symptomatic RP Attacks Change from Baseline, Q1 (participants with SSc-RP [1]; listed as Pooled Cilnidipine): −7.00 | Weekly Symptomatic RP Attacks Change from Baseline, Q3 (participants with SSc-RP [1]; listed as Pooled Cilnidipine): −2.00 | Weekly Symptomatic RP Attacks Percent Change from Baseline, Max (participants with SSc-RP [1]; listed as Pooled Cilnidipine): −28.6% | Weekly Symptomatic RP Attacks Percent Change from Baseline, Min (participants with SSc-RP [1]; listed as Pooled Cilnidipine): −38.9% | Weekly Symptomatic RP Attacks Percent Change from Baseline, Q3 (participants with SSc-RP [1]; listed as Pooled Cilnidipine): −28.57% | Alternative disability index, Baseline, Mean (participants with SSc-RP [2]; Cilnidipine 10 mg, Modified ITT, Part A): 0.500 | Alternative disability index, Baseline, Median (participants with SSc-RP [2]; Cilnidipine 20 mg, Modified ITT, Part A): 0.250 | patient-reported SSc disease alternative disability compared to placebo (participants with SSc-RP [2]; Example 4, SHAQ, mITT Part A): may reduce

— patent US20240398771A1, “TREATMENT OF SCLERODERMA AND RAYNAUD'S SYNDROME” (Aisa Pharma, Inc., priority 2023, published 2024)
